Laboratory results taken from patent US20240382509A1, “Cannabinoids C- and O-glycosides possessing anti-proliferative and anti-metastatic properties and process for preparation thereof” (Council of Scientific and Industrial Research, priority 2021, published 2024).
pIC50: −log10 of the molar value. Where two headings read alike, the source gives them in different places.

How the values were obtained:
Panc-1 cells [1] = assay: MTT cell viability assay, Panc-1; type: cell-based; settings: for pIC50: pancreatic cancer cells
Procedure: (§1) Cell viability assay: The cell viability was determined by the standard MTT assay method. Briefly, Panc-1, HCT-116, A549, PC3, MIAPaca-2, HT-29, MDA-MB-231, MCF7 cells, and fR2cells were seeded in 96 well tissue culture plates (Nunc) at a density of 4×10^3 cells per well and treated with varying concentrations of the test compounds in triplicates. DMSO was taken as a vehicle, and its final concentration was maintained at 0.2% in the culture medium. Doxorubicin was employed as a positive control. After 44 h of incubation, MTT dye solution was added into the medium, and cells were incubated for another 4 h at 37° C. in 5% CO2. The amount of colored formazan derivatives formed was measured by taking optical density (OD) using a microplate reader (TECAN, Infinite M200 Pro) at 570 nm, and the percentage of cell viability was calculated. The IC50 values were calculated using GraphPad Prism software (Version 5.0).

MIAPaCa-2 cells [2] = assay: MTT cell viability assay, MIAPaCa-2; type: cell-based, human
Procedure: as §1

HCT-116 cells = assay: MTT cell viability assay, HCT-116; type: cell-based; settings: colorectal adenocarcinoma cells
Procedure: as §1

[3] = system: human colorectal adenocarcinoma cell line (HT-29); assay: MTT cell viability assay, HT-29; type: cell-based; settings: human colorectal adenocarcinoma cell line
Procedure: as §1

[4] = system: lung adenocarcinoma cells (A549); assay: MTT cell viability assay, A549; type: cell-based
Procedure: as §1

PC3 cells = assay: MTT cell viability assay, PC3; type: cell-based
Procedure: as §1

MCF-7 cells = assay: MTT cell viability assay, MCF-7; type: cell-based; settings: breast cancer cell of epithelial origin
Procedure: as §1

[5] = MTT cell viability assay, fR2 normal epithelial cells; type: cell-based, human; settings: human, fR2 normal epithelial cells; MTT, 48 h; normal epithelial cell line; read-out: Cytotoxicity (IC50) fR2
Procedure: as §1

MIAPaCa-2 cells [6] = assay: Cell scatter assay; type: cell-based, human; settings: MIAPaCa-2, 1, 2, 3 μM, 36 h, compared to vehicle and parent molecule
Procedure: Cell scatter assay MIAPaCa-2 cells were seeded onto a 12 well plate at a seeding density of 500 cells/well and kept for 4-5 days, and there was the formation of scatter colonies since the cell line itself is a metastatic cell line. Accordingly, they were treated with 1 μM, 2 μM & 3 μM of compound 2, 2a, 2b, 3, 3a, 4, 4a & 4b for 36 h, and upon termination, they were washed with PBS and observed under an inverted microscope at 20× magnification (FIG. 3).

Panc-1 cells [7] = assay: Colony formation assay; type: cell-based; settings: Panc-1, 1000 cells/well, 5 days, compared to corresponding parent compounds
Procedure: Colony formation assay. […] cells were seeded onto 6 well plates with a seeding density of 1000 cells/well. The cells after attachment were treated with 2 (2a, 2b), 3 (3a, 3b), 4 (4a, 4b) along with DMSO as a vehicle control and incubated for 5-6 days. After incubation, the plates were washed with ice-cold PBS, and the cells were fixed with methanol for 5 min. After fixing. the cells were stained with 0.2% crystal violet stain for 1 h. The cells were then washed with distilled water to remove the stain and were observed under an inverted microscope at 20× magnification.
The anti-proliferative properties of glycosidic derivatives were further analysed by colony formation assay in pancreatic cancer cells. The novel C-glycosidic derivatives of compounds 1, 2, 3 and 4 viz 1b, 2b, 3b & 4b display anti-proliferative property (FIG. 2). Panc-1cells were seeded onto 6 well plates at seeding density 1000 cells/well and treated with indicated concentration of 1b, 2b, 3b and 4b derivatives along with their parent compounds and DMSO as vehicle for 5 days. Upon termination the cells were stained with crystal violet and images of field were photographed.

[8] = Homo sapiens, MIA PaCa-2, 48 h, read-out: Cytotoxicity (IC50) MIAPaCa-2, MTT, 48 h
[9] = Homo sapiens, HCT-116, 48 h, read-out: Cytotoxicity (IC50) HCT-116, MTT, 48 h
[10] = Homo sapiens, HT-29, 48 h, read-out: Cytotoxicity (IC50) HT-29, MTT, 48 h
[11] = Homo sapiens, PC-3, 48 h, read-out: Cytotoxicity (IC50) PC3, MTT, 48 h
[12] = Homo sapiens, MCF7, 48 h, read-out: Cytotoxicity (IC50) MCF-7, MTT, 48 h
[13] = Homo sapiens, PANC-1, 48 h, read-out: Cytotoxicity (IC50) Panc-1, MTT, 48 h
[14] = Homo sapiens, A549, 48 h, read-out: Cytotoxicity (IC50) A549, MTT, 48 h

**Q.** With `CCCCCc1cc(O[C@@H]2OC(CO)[C@@H](O)C(O)C2O)c2c(c1)OC(C)(C)[C@@H]1CC=C(C)C[C@@H]21` (single isomer, unassigned) [Compound 3a, Δ^8-tetrahydrocannabinol-1-O-β-D-glucopyranoside] as the molecule, how does the pIC50 (Panc-1 cells [1]; read-out: Cytotoxicity (IC50) Panc-1, MTT, 48 h) read?
**A.** 5.50

**Q.** What about the pIC50 (MIAPaCa-2 cells [2]; [8]) of the same molecule?
**A.** 6.13

**Q.** What about the pIC50 (HCT-116 cells; [9]) of the same molecule?
**A.** 4.52

**Q.** What about the pIC50 [3, 10] of the same molecule?
**A.** 4.97

**Q.** And the pIC50 ([4]; read-out: Cytotoxicity (IC50) A549, MTT, 48 h)?
**A.** 5.67

**Q.** And the pIC50 (PC3 cells; [11])?
**A.** 4.42

**Q.** What about the pIC50 (MCF-7 cells; [12]) of the same molecule?
**A.** 4.46

**Q.** And the IC50 at 48 h [5]?
**A.** > 100 µM

**Q.** And the cell scattering (MIAPaCa-2 cells [6])?
**A.** did not prevent cell scattering

**Q.** What does the source list for `CCCCCc1cc(O)c2c(c1)OC(C)(C)c1ccc(C)cc1-2` (single isomer, unassigned) [Compound 4, Cannabinol, reference compound]?
**A.** pIC50 (Panc-1 cells [1]; [13]): 4.93; pIC50 (MIAPaCa-2 cells [2]; [8]): 5.79; pIC50 (HCT-116 cells; [9]): 4.33; pIC50 [3, 10]: 4.69; pIC50 [4, 14]: 5.67; pIC50 (PC3 cells; [11]): 4.55; pIC50 (MCF-7 cells; [12]): 4.30

**Q.** With `CCCc1cc(O)c2c(c1)OC(C)(C)[C@@H]1CCC(C)=C[C@@H]21` [Compound 1, Δ^9-tetrahydrocannabivarin, reference compound] as the molecule, how does the pIC50 (Panc-1 cells [1]; MTT, 48 h, read-out: Cytotoxicity (IC50) Panc-1) read?
**A.** 5.03

**Q.** And the pIC50 (MIAPaCa-2 cells [2]; MTT, 48 h, read-out: Cytotoxicity (IC50) MIAPaCa-2)?
**A.** 4.64

**Q.** And the pIC50 (HCT-116 cells; MTT, 48 h, read-out: Cytotoxicity (IC50) HCT-116)?
**A.** 4.97

**Q.** And the pIC50 ([3]; MTT, 48 h, read-out: Cytotoxicity (IC50) HT-29)?
**A.** 4.34

**Q.** What about the pIC50 ([4]; MTT, 48 h, read-out: Cytotoxicity (IC50) A549) of the same molecule?
**A.** 4.40

**Q.** What about the pIC50 (PC3 cells; MTT, 48 h, read-out: Cytotoxicity (IC50) PC3) of the same molecule?
**A.** 4.05

**Q.** And the pIC50 (MCF-7 cells; MTT, 48 h, read-out: Cytotoxicity (IC50) MCF-7)?
**A.** < 4.00

**Q.** Which results are given for `CCCc1cc(O[C@@H]2OC(CO)[C@@H](O)C(O)C2O)c2c(c1)OC(C)(C)[C@@H]1CC=C(C)C[C@@H]21` (stereo partly drawn) [Compound 1a, Δ^8-tetrahydrocannabivarin-1-O-β-D-glucopyranoside]?
**A.** pIC50 (Panc-1 cells [1]; [13]): 4.67; pIC50 (MIAPaCa-2 cells [2]; [8]): < 4.00; pIC50 (HCT-116 cells; [9]): 4.48; pIC50 [3, 10]: < 4.00; pIC50 [4, 14]: 4.28; pIC50 (PC3 cells; [11]): < 4.00; pIC50 (MCF-7 cells; [12]): 4.04

**Q.** With `CCCc1cc2c(c(O)c1[C@@H]1OC(CO)[C@@H](O)C(O)C1O)[C@@H]1CC(C)=CC[C@H]1C(C)(C)O2` (stereo partly drawn) [Compound 1b, Δ^8-tetrahydrocannabivarin-2-C-β-D-glucopyranoside] as the molecule, how does the pIC50 (Panc-1 cells [1]; Homo sapiens, PANC-1, 48 h, MTT, 48 h, read-out: Cytotoxicity (IC50) Panc-1) read?
**A.** 5.39

**Q.** And the “fold activity compared to parent compound, pancreatic cancer cells” value (Panc-1 cells [1]; ratio of IC50 parent vs derivative, Panc-1)?
**A.** > 2 fold

**Q.** And the pIC50 (MIAPaCa-2 cells [2]; Homo sapiens, MIA PaCa-2, 48 h, MTT, 48 h, read-out: Cytotoxicity (IC50) MIAPaCa-2)?
**A.** 5.04

**Q.** And the pIC50 (HCT-116 cells; Homo sapiens, HCT-116, 48 h, MTT, 48 h, read-out: Cytotoxicity (IC50) HCT-116)?
**A.** 5.41

**Q.** And the pIC50 ([3]; Homo sapiens, HT-29, 48 h, MTT, 48 h, read-out: Cytotoxicity (IC50) HT-29)?
**A.** 4.40

**Q.** And the pIC50 ([4]; Homo sapiens, A549, 48 h, MTT, 48 h, read-out: Cytotoxicity (IC50) A549)?
**A.** 4.45

**Q.** What about the pIC50 (PC3 cells; Homo sapiens, PC-3, 48 h, MTT, 48 h, read-out: Cytotoxicity (IC50) PC3) of the same molecule?
**A.** 4.62

**Q.** And the pIC50 (MCF-7 cells; Homo sapiens, MCF7, 48 h, MTT, 48 h, read-out: Cytotoxicity (IC50) MCF-7)?
**A.** < 4.00

**Q.** What about the “anti-proliferative potential in colony formation assay” value (Panc-1 cells [7]) of the same molecule?
**A.** strong anti-proliferative potential
